Assay results: ChEMBL document CHEMBL3044575, “Synthesis, anti-inflammatory activity, and QSAR study of some Schiff bases derived from 5-mercapto-3-(4-pyridyl)-4H-1,2,4-triazol-4-yl-thiosemicarbazide” (2013)

Tests used:
Type in all cases: functional
Rattus norvegicus [1] = assay: Anti-inflammatory activity in Albino Rattus norvegicus (rat) assessed as inhibition of carrageenan-induced paw edema at 20 mg/kg, po administered 1 hr prior to carrageenan challenge measured after 5 hr by mercury displacement technique
Rattus norvegicus [2] = assay: Anti-inflammatory activity in Albino Rattus norvegicus (rat) assessed as inhibition of carrageenan-induced paw edema at 20 mg/kg, po administered 1 hr prior to carrageenan challenge measured after 2 hr by mercury displacement technique
Rattus norvegicus [3] = assay: Anti-inflammatory activity in Albino Rattus norvegicus (rat) assessed as inhibition of carrageenan-induced paw edema at 20 mg/kg, po administered 1 hr prior to carrageenan challenge measured after 1 hr by mercury displacement technique
Rattus norvegicus [4] = assay: Anti-inflammatory activity in Albino Rattus norvegicus (rat) assessed as inhibition of carrageenan-induced paw edema at 10 mg/kg, po administered 1 hr prior to carrageenan challenge measured after 5 hr by mercury displacement technique
Rattus norvegicus [5] = assay: Anti-inflammatory activity in Albino Rattus norvegicus (rat) assessed as inhibition of carrageenan-induced paw edema at 10 mg/kg, po administered 1 hr prior to carrageenan challenge measured after 2 hr by mercury displacement technique
Rattus norvegicus [6] = assay: Anti-inflammatory activity in Albino Rattus norvegicus (rat) assessed as inhibition of carrageenan-induced paw edema at 10 mg/kg, po administered 1 hr prior to carrageenan challenge measured after 1 hr by mercury displacement technique

Structure (SMILES) | inhibition in vivo at 20 mg/kg (Rattus norvegicus [1]) | inhibition in vivo at 20 mg/kg (Rattus norvegicus [2]) | inhibition in vivo at 20 mg/kg (Rattus norvegicus [3]) | inhibition in vivo at 10 mg/kg (Rattus norvegicus [4]) | inhibition in vivo at 10 mg/kg (Rattus norvegicus [5]) | inhibition in vivo at 10 mg/kg (Rattus norvegicus [6])
O=[N+]([O-])c1ccc(/C=N/NC(=S)Nn2c(S)nnc2-c2ccncc2)cc1 | 41.5% | 34.5% | 14.3% | – | – | –
S=C(N/N=C/c1ccccc1Cl)Nn1c(S)nnc1-c1ccncc1 | 67.3% | 62.5% | 39.1% | – | – | –
S=C(N/N=C/c1ccc(Cl)cc1)Nn1c(S)nnc1-c1ccncc1 | 76.9% | 69.6% | 45.5% | – | – | –
COc1cc(/C=N/NC(=S)Nn2c(S)nnc2-c2ccncc2)cc(OC)c1OC | 61.4% | 52.9% | 36.2% | – | – | –
COc1ccc(/C=N/NC(=S)Nn2c(S)nnc2-c2ccncc2)cc1O | 48.4% | 44.4% | 28% | – | – | –
COc1ccc2c(c1)c(CC(=O)O)c(C)n2C(=O)c1ccc(Cl)cc1 [INDOMETHACIN] | – | – | – | 84% | 73% | 52%
